# Molecular target: T1, Aβ42 (Homo sapiens, UniProt P05067)
# T1 construct: […]; made in house; host or cells: E. coli BL21 Gold (DE3)
# Test: ThT kinetic assay of Aβ42 fibril formation (unseeded)
# Type: biochemical
# Details: 2 μM Aβ42; range of Netoglitazone concentrations; ThT fluorescence
# Excerpt: The recombinant Aβ(M1-42) peptide ([…]-SNKGAIIGLMVGGVVIA [SEQ ID NO: 1]), here called Aβ42, was expressed in the E. coli BL21 Gold (DE3) strain (Stratagene, CA, U.S.A.) and purified as described previously with slight modifications. Briefly, the purification procedure involved sonication of E. coli cells, dissolution of inclusion bodies in 8 M urea, and ion exchange in batch mode on diethylaminoethyl cellulose resin and lyophylization. The lyophilized fractions were further purified using Superdex 75 HR 26/60 column (GE Healthcare, Buckinghamshire, U.K.) and eluates were analyzed using SDS-PAGE for the presence of the desired protein product. The fractions containing the recombinant protein were combined, frozen using liquid nitrogen, and lyophilized again.
# Except for Netoglitazone, which was custom synthesised by GVK BIO, all small molecules were purchased with a purity greater than 99%. Small molecules were first solubilized in 100% DMSO to a concentration of 5 mM, and then diluted in the peptide solution to reach a final DMSO concentration of maximum 1-3%. We verified that the addition of DMSO in the reaction mixture has no effect on Aβ42 aggregation.
# Solutions of monomeric peptides were prepared by dissolving the lyophilized Aβ42 peptide in 6 M GuHCl. Monomeric forms were purified from potential oligomeric species and salt using a Superdex 75 10/300 GL column (GE Healthcare) at a flowrate of 0.5 mL/min, and were eluted in 20 mM sodium phosphate buffer, pH 8 supplemented with 200 μM EDTA and 0.02% NaN3. The centre of the peak was collected, and the peptide concentration was determined from the absorbance of the integrated peak area using ε280=1490 L mol^−1 cm^−1. The obtained monomer was diluted with buffer to the desired concentration and supplemented with 20 μM Thioflavin T (ThT) from a 1 mM stock. All samples were prepared in low binding Eppendorf tubes on ice using careful pipetting to avoid introduction of air bubbles. Each sample was then pipetted into multiple wells of a 96-well half-area, low-binding, clear bottom and PEG coating plate (Corning 3881), 80 μL per well. Aβ42 kinetics have been performed in the absence or the presence of Netoglitazone, Mitoglitazone, Rosiglotazone, Rivoglitazone, Pioglitazone, Ciglitazone, Englitazone, Darglitazone, Troglitazone and B alaglitazone.
# T1 sequence (P05067 671-713): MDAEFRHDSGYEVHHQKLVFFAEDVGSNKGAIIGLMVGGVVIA
smiles,measurement,value
O=C1NC(=O)C(Cc2ccc3cc(OCc4ccccc4F)ccc3c2)S1 (stereo not shown) [Netoglitazone],delay in Aβ42 aggregation,substantial delay
